# From patent US6914045B2, “Glycopeptide antibiotics” (Wyeth Holdings Corporation, priority 2001, dated 2005)
# Assays:
# Staphylococcus sp. = assay: in vitro antibacterial evaluation, MIC by broth dilution; type: cell-based; conditions: broth dilution, 18 hours at 35° C.
# Summary of the method: (§1)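 MIC = lowest antibiotic concentration preventing visible growth; inoculum 5×10^5 CFU/mL; drug range 64-0.06 μg/mL; Muller-Hinton II […]; NCCLS M7-A2 guidance.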
# Enterococcus sp. = assay: as above; type: cell-based; conditions: broth dilution, 18 hours at 35° C.
# Summary of the method: as §1
# Streptococcus sp. = assay: as above; type: cell-based; conditions: broth dilution, 18 hours at 35° C.
# Summary of the method: as §1
# [1] = anatomic pathology (histopathology of heart and kidney) in mice; type: in vivo; conditions: CD-1 mice, 20 mg/kg intravenously daily for 9 days, necropsy day 10, microscopic histopathology
# Protocol: Samples of tissues from necropsied mice were formalin-fixed, paraffin-embedded, sectioned, stained with hematoxylin and eosin, and examined microscopically. Histopathologic findings were recorded. These findings were subjectively graded on a scale corresponding to slight, mild, moderate, marked and severe as compared to untreated controls.
# Escherichia coli = assay: in vitro antibacterial evaluation, MIC by broth dilution; type: cell-based; conditions: 18 hours at 35° C.
# Summary of the method: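 Broth dilution MIC per NCCLS M7-A2 in Mueller-Hinton II medium, inoculum 5×10^5 CFU/mL, antibiotic range 64-0.06 μg/mL. MIC taken as lowest concentration inhibiting growth.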
smiles,measurement,setting,value
"CCCCCCCN1CC(C(O)C2NC(=O)C(C(O)C3CNC(=N)N3)NC(=O)C(Cc3ccc(OC4OC(CO)C(OC5OC(CO)C(O)C(O)C5O)C(O)C4O)cc3)NC(=O)C(C(C)c3ccccc3)NC(=O)CNC(=O)C(CO)NC2=O)N(C2OC(CO)C(O)C(O)C2O)C1=N (stereo not drawn) [Example 71, Cyclo[glycyl-β-methylphenylalanyl-O-(4-O-hexopyranosylhexopyranosyl)tyrosyl-3-(2-iminoimidazolidin-4-yl)seryl-3-[1-heptyl-3-hexopyranosyl-2-iminoimidazolidin-4-yl]serylseryl]]",MIC Staphylococcus aureus (ATCC 29213),Staphylococcus sp.; strain ATCC 29213,>128 µg/mL
same,MIC Staphylococcus aureus (GC 1131),Staphylococcus sp.; strain GC 1131,>128 µg/mL
same,MIC Staphylococcus aureus (GC 3051),Staphylococcus sp.; strain GC 3051,>128 µg/mL
same,MIC Staphylococcus aureus (GC 3053),Staphylococcus sp.; strain GC 3053,>128 µg/mL
same,MIC Staphylococcus aureus (GC 4541),Staphylococcus sp.; strain GC 4541,>128 µg/mL
same,MIC Staphylococcus aureus (GC 4542),Staphylococcus sp.; strain GC 4542,>128 µg/mL
same,MIC Staphylococcus aureus-SMITH (GC 4543),Staphylococcus sp.; strain GC 4543,>128 µg/mL
same,MIC Staphylococcus aureus (GC 4544),Staphylococcus sp.; strain GC 4544,>128 µg/mL
same,MIC Staphylococcus aureus (GC 4545),Staphylococcus sp.; strain GC 4545,>128 µg/mL
same,MIC Staphylococcus haemolyticus (GC 4546),Staphylococcus sp.; strain GC 4546,>128 µg/mL
same,MIC Coagulase Negative Staphylococcus (GC 4547),Staphylococcus sp.; strain GC 4547,>128 µg/mL
same,MIC Coagulase Negative Staphylococcus (GC 4548),Staphylococcus sp.; strain GC 4548,>128 µg/mL
same,MIC Coagulase Negative Staphylococcus (GC 4549),Staphylococcus sp.; strain GC 4549,>128 µg/mL
same,MIC Coagulase Negative Staphylococcus (GC 4551),Staphylococcus sp.; strain GC 4551,>128 µg/mL
same,MIC Coagulase Negative Staphylococcus (GC 6257),Staphylococcus sp.; strain GC 6257,>128 µg/mL
same,MIC Enterococcus avium (GC 4558),Enterococcus sp.,>128 µg/mL
same,MIC Enterococcus faecalis (ATCC 29212),Enterococcus sp.,>128 µg/mL
same,MIC Enterococcus faecalis (GC 2242),Enterococcus sp.,>128 µg/mL
same,MIC Enterococcus faecalis (GC 2691),Enterococcus sp.,>128 µg/mL
same,MIC Enterococcus faecalis (GC 3059),Enterococcus sp.,>128 µg/mL
same,MIC Enterococcus faecalis (GC 4552),Enterococcus sp.,>128 µg/mL
same,MIC Enterococcus faecalis (GC 4553),Enterococcus sp.,>128 µg/mL
same,MIC Enterococcus faecalis (GC 4554),Enterococcus sp.,>128 µg/mL
same,MIC Enterococcus faecalis (GC 6189),Enterococcus sp.,>128 µg/mL
same,MIC Enterococcus faecium (GC 2243),Enterococcus sp.,>128 µg/mL
same,MIC Enterococcus faecium (GC 4556),Enterococcus sp.,>128 µg/mL
same,MIC Enterococcus faecium (GC 4557),Enterococcus sp.,>128 µg/mL
same,MIC Streptococcus agalactiae (GC 4564),Streptococcus sp.,>128 µg/mL
same,MIC Streptococcus pneumoniae (ATCC 6301),Streptococcus sp.,>128 µg/mL
same,MIC Streptococcus pneumoniae (GC 1894),Streptococcus sp.,>128 µg/mL
same,MIC Streptococcus pneumoniae (GC 4565),Streptococcus sp.,>128 µg/mL
same,MIC Streptococcus pyogenes (GC 4563),Streptococcus sp.,>128 µg/mL
same,"Anatomical Pathology (Day 10), Heart",[1],0
same,"Anatomical Pathology (Day 10), Kidney",[1],0
same,MIC Escherichia coli (ATCC 25922),Escherichia coli,>128 µg/mL
same,MIC Escherichia coli (GC 4559),Escherichia coli,>128 µg/mL
same,MIC Escherichia coli (GC 4560),Escherichia coli,128 µg/mL
